Data set [1] relates to Trypanosoma brucei rhodesiense (bloodstream trypomastigotes, STIB 900 strain). Put plainly: In vitro anti-trypanosomal activity against Tbr. Type of data set: cell-based. The method, then:
(§1) In vitro tests for biological activity of the crude extracts, fractions, sub-fractions and isolated compounds against Trypanosoma brucei rhodesiense (bloodstream trypomastigotes, STIB 900 strain), Trypanosoma cruzi (amastigotes, Tulahuen C4 strain), Leishmania donovani (amastigotes, MHOM-ET-67/L82 strain), Plasmodium falciparum (intraerythrocytic form, NF54 strain) and cytotoxicity test against mammalian L6 cell line from rat skeletal myoblasts were performed according to the established standard protocol. However, only the activity data against Trypanosoma brucei rhodesiense is reported due to the inactivity of the tested substances against other parasites at the concentration tested.

A short description of data set [2]: Cytotoxicity against L6 cells. In kind it is cell-based, rat. Conditions: rat. The method, then: as §1
The subject of data set [3] is L6 rat skeletal myoblasts. Put plainly: Cytotoxicity against L6 cells. In kind it is cell-based. The method, then: as §1
[4] abbreviates: Trypanosoma brucei, isolated compounds, average of two determinations ± absolute deviation, read-out: Tbr (STIB900) IC50 (µg/mL).
[5] abbreviates: isolated compounds, average of two determinations ± absolute deviation, read-out: Tbr (STIB900) IC50.
The mark [6] stands for this setting: Trypanosoma brucei, isolated compounds, average of two determinations ± absolute deviation, read-out: Tbr (STIB900) IC50.
Setting [7] is: isolated compounds, average of two determinations (a: one replicate), read-out: Cytotoxicity L6 Cells IC50.
[8] abbreviates: isolated compounds, average of two determinations (a: one replicate), read-out: Cytotoxicity L6 Cells IC50 (µg/mL).

Several values for one entry are separate records, joined by “and”; a condition that tells them apart may be missing. Equal values may be shown once. Read-outs that look alike come from different tables or passages of the source.

As to `CC(=O)[C@H]1CC[C@H]2[C@@H]3CC=C4C[C@@H](N)CC[C@]4(C)[C@H]3CC[C@]12C` [Compound 1, 3β-holaphyllamine], the IC50 was 0.127 ± 0.088 µg/mL in data set [1] (setting [4]); 400 ± 280 nM in data set [1] (setting [5]); 1.61 µg/mL and 5.1 µM in data set [2].

`C[C@H]1[C@H]2CC[C@H]3[C@@H]4C(=O)C=C5C=CCC[C@]5(C)[C@H]4CC[C@]23CN1C` [Compound 10, cona-3,5-dienin-7-one]: the IC50 came out at 7370 ± 940 nM in data set [1] (setting [6]), 2.4 ± 0.3 µg/mL in data set [1] (setting [4]), 41700 ± 18900 nM in data set [2] (setting [7]) and 13.6 ± 6.2 µg/mL in data set [2] (setting [8]).

`COc1cc([C@@H]2c3cc4c(cc3[C@H](O)[C@H]3COC(=O)[C@H]23)OCO4)cc(OC)c1OC` [podophyllotoxin, reference compound]: the IC50 in data set [2] (Table 1, Leaves, L6 cells (c: one replicate), read-out: Cytotox. L6 IC50) came to 0.004 ± 0.001 µg/mL.

Regarding `CN[C@H]1CC[C@@]2(C)C(=CC[C@H]3[C@@H]4CC[C@@H]5[C@H](C)N(C)C[C@@]54[C@H](OC(=O)CC=C(C)C)C[C@@H]32)C1` [Compound 14, holarrhesine], the IC50 in data set [1] (setting [6]) was 120 ± 80 nM; in data set [1] (setting [4]) it was 0.054 ± 0.038 µg/mL; in data set [1] (setting [5]), 119 ± 84 nM; in data set [2], 6.51 µg/mL and 14.3 µM.

Consider `CC(=O)[C@H]1CC[C@H]2[C@@H]3CC[C@H]4C[C@@H](N)CC[C@]4(C)[C@H]3CC[C@]12C` [Compound 5, 3β-dihydroholaphyllamine], for which the IC50 in data set [1] (setting [6]) was 670 ± 30 nM; in data set [1] (setting [4]), 0.213 ± 0.008 µg/mL; in data set [1] (setting [5]), 672 ± 27 nM; in data set [2] (setting [7]), 17400 ± 1360 nM; in data set [2] (setting [8]), 5.51 ± 0.43 µg/mL.

As to `C[C@]12C=CC(=O)C=C1CC[C@@H]1[C@@H]2[C@@H](O)C[C@]2(C)C(=O)CC[C@@H]12` [Compound 18, kurchinin], the IC50 in data set [1] (setting [4]) worked out at 3.64 ± 0.21 µg/mL.

For the compound N^3-isopentenyl adenine [Compound 19], the “Tbr (STIB900) IC50” value in data set [1] (isolated compounds, average of two determinations ± absolute deviation) is on record as 5.03 ± 0.54 µg/mL. In addition, in data set [3], the “Cytotoxicity L6 Cells IC50” value came out at 61.30 ± 4.24 µg/mL and the IC50 came out at 302000 ± 6800 nM.

In the case of `C[C@H]1[C@H]2CC[C@H]3[C@@H]4CC=C5C[C@@H](N(C)C)CC[C@]5(C)[C@H]4C[C@@H](O)[C@]23CN1C` [Compound 17, holarrhenine], the IC50 in data set [1] (setting [6]) was 20900 ± 6000 nM; in data set [1] (setting [4]) it was 7.78 ± 2.23 µg/mL; in data set [2] it was 46.4 µg/mL and 125 µM.

As for `C[C@H]1[C@H]2CC[C@H]3[C@@H]4CCC5=CC(=O)C=C[C@]5(C)[C@H]4CC[C@]23CN1C` [Compound 7, holadienine], the values for the IC50 in data set [1] (setting [6]) and in data set [1] (setting [4]) were 14900 ± 2100 nM and 4.81 ± 0.68 µg/mL, respectively.

Consider `CC(=O)N[C@H]1CC[C@@]2(C)C(=CC[C@H]3[C@@H]4CC[C@H](C(C)=O)[C@@]4(C)CC[C@@H]32)C1` [Compound 2, holaphyllamine acetamide], for which the IC50 in data set [1] (setting [6]) was 4800 to 14900 nM; in data set [1] (setting [4]), 1.73 ± 0.47 µg/mL; in data set [1] (setting [5]), 4830 ± 1330 nM; in data set [2], 5.49 µg/mL and 15.4 µM.

For the compound `C[C@H]1[C@H]2CC[C@H]3[C@@H]4CC=C5C[C@@H](N(C)C)CC[C@]5(C)[C@H]4CC[C@]23CN1C` [Compound 13, conessine], the IC50 in data set [1] (setting [6]) was 420 ± 90 nM; in data set [1] (setting [4]), 0.149 ± 0.031 µg/mL; in data set [1] (setting [5]), 419 ± 87 nM; in data set [2] (L6 rat skeletal myoblast cells, isolated compounds, average of two determinations (a: one replicate), read-out: Cytotoxicity L6 Cells IC50), 61200 nM; in data set [2] (L6 rat skeletal myoblast cells, isolated compounds, average of two determinations (a: one replicate), read-out: Cytotoxicity L6 Cells IC50 (µg/mL)), 21.8 µg/mL.

For `CC(C)=CCC(=O)O[C@@H]1C[C@H]2[C@@H](CC=C3C[C@@H](N(C)C)CC[C@@]32C)[C@@H]2CC[C@@H]3[C@H](C)N(C)C[C@]312` [Compound 15, holarrhetine], the IC50 in data set [1] (setting [6]) was 1660 ± 390 nM; in data set [1] (setting [4]), 0.777 ± 0.182 µg/mL; in data set [2] it was 45.8 µg/mL and 97.7 µM.

On to `CN[C@H]1CC[C@@]2(C)C(=CC[C@H]3[C@@H]4CC[C@@H]5[C@H](C)N(C)C[C@@]54CC[C@@H]32)C1` [Compound 12, isoconessimine], for which the IC50 in data set [1] (setting [6]) is 170 ± 110 nM; in data set [1] (setting [4]) it was 0.056 ± 0.038 µg/mL; in data set [1] (setting [5]), 166 ± 112 nM; in data set [2], 9.38 µg/mL and 27.4 µM.

As to `Nc1nc(N)nc(Nc2ccc([As]3SCC(CO)S3)cc2)n1` (stereo not shown) [melarsoprol, reference compound], the IC50 in data set [1] (Trypanosoma brucei, read-out: Tbr IC50) came out at 0.002 ± 0.001 µg/mL.

Turning to `CN[C@H]1CC[C@@]2(C)C(=CC[C@H]3[C@@H]4CC[C@@H]5[C@H](C)N(C)C[C@@]54[C@H](O)C[C@@H]32)C1` [Compound 16, holarrheline], the IC50 in data set [1] (setting [6]) was 8210 ± 1030 nM; in data set [1] (setting [4]) it was 2.94 ± 0.37 µg/mL; in data set [2] it was 64.8 µg/mL and 181 µM.

Turning to `C[C@H]1[C@H]2CC[C@H]3[C@@H]4C=CC5=CC(=O)CC[C@]5(C)[C@H]4CC[C@]23CN1C` [Compound 9, cona-4,6-dienin-3-one], the IC50 was 17500 ± 200 nM in data set [1] (setting [6]); 5.69 ± 0.07 µg/mL in data set [1] (setting [4]); 41.9 µg/mL and 129 µM in data set [2].

As to `CN[C@H]1CC[C@@]2(C)C(=CC[C@H]3[C@@H]4CC[C@H](C(C)=O)[C@@]4(C)CC[C@@H]32)C1` [Compound 3, 3β-N-methylholaphyllamine], the IC50 was 80 ± 10 nM in data set [1] (setting [6]); 0.025 ± 0.001 µg/mL in data set [1] (setting [4]); 75 ± 4 nM in data set [1] (setting [5]); 0.829 µg/mL and 2.48 µM in data set [2].

Take `CC(=O)[C@H]1CC[C@H]2[C@@H]3CC[C@H]4C[C@H](N)CC[C@]4(C)[C@H]3CC[C@]12C` [Compound 6, 3α-dihydroholaphyllamine]: the IC50 in data set [1] (setting [6]) was found to be 1210 ± 750 nM; in data set [1] (setting [4]), 0.382 ± 0.238 µg/mL; in data set [2] (setting [7]) it was 17000 ± 1200 nM; in data set [2] (setting [8]), 5.38 ± 0.39 µg/mL.

`C[C@@H]1N=C[C@]23C[C@H](O)[C@H]4[C@@H](CCC5=CC(=O)C=C[C@@]54C)[C@@H]2CC[C@H]13` [Compound 8, holonamine]: the IC50 is 8670 ± 2330 nM in data set [1] (setting [6]); 2.82 ± 0.76 µg/mL in data set [1] (setting [4]); 21.1 µg/mL and 64.9 µM in data set [2].

For `CC(=O)[C@H]1CC[C@H]2[C@@H]3CC=C4C[C@H](N)CC[C@]4(C)[C@H]3CC[C@]12C` [Compound 4, 3α-holaphyllamine], the IC50 in data set [1] (setting [6]) was 370 ± 159 nM; in data set [1] (setting [4]), 0.117 ± 0.05 µg/mL; in data set [2], 5 µg/mL and 15.9 µM.

`C[C@@H]1NC[C@]23CC[C@H]4[C@@H](CC=C5C[C@@H](N(C)C)CC[C@@]54C)[C@@H]2CC[C@H]13` [Compound 11, conessimine]: the IC50 is 170 ± 80 nM in data set [1] (setting [6]); 0.057 ± 0.028 µg/mL in data set [1] (setting [4]); 167 ± 83 nM in data set [1] (setting [5]); 17.3 µg/mL and 50.4 µM in data set [2].

The record behind these values is article PMC6152089, “Steroid Alkaloids from Holarrhena africana with Strong Activity against Trypanosoma brucei rhodesiense” (Molecules : A Journal of Synthetic Chemistry and Natural …, 2017).
